ChEMBL document CHEMBL4725424, “The Resurrection of Phenotypic Drug Discovery” (ACS Med Chem Lett, 2020)

Key:
Homo sapiens = species: Homo sapiens; assay: Selectivity index, ratio of IC50 for inhibition of CDK4/cyclinD (unknown origin) to IC50 for inhibition of CDK9/cyclinT1 (unknown origin)
CDK3/Cyclin E = CDK3/Cyclin E (Homo sapiens, UniProt Q00526); assay: Inhibition of CDK3/cyclinE (unknown origin); type: protein-complex assay
[1] = biological target: Cyclin-dependent kinase 4/cyclin D1 (Homo sapiens, UniProt P11802); assay: Inhibition of CDK4/cyclinD (unknown origin); type: protein-complex assay
Chain of Cyclin-dependent kinase 4/cyclin D1 (P11802 whole entry): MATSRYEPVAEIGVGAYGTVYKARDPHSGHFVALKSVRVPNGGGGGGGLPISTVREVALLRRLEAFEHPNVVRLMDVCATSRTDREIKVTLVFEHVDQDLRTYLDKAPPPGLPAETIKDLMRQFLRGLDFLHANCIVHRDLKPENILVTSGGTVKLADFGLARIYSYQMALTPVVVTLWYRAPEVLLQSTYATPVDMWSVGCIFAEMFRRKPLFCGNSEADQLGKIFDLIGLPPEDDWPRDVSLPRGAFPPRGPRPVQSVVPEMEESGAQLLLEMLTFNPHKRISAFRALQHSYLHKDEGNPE
Chain of Cyclin-dependent kinase 4/cyclin D1 (P24385 whole entry, further chain): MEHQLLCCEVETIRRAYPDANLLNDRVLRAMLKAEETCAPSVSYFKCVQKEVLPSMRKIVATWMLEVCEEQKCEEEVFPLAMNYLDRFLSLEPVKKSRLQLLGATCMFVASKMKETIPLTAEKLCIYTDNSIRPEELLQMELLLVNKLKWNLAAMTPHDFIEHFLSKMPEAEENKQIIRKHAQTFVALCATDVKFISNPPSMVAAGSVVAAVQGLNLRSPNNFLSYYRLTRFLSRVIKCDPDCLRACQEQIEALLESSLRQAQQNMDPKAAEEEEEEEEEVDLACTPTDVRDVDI

[2] = biological target: Cyclin-dependent kinase 1/cyclin B1 (Homo sapiens, UniProt P06493); assay: Inhibition of CDK1/cyclinB (unknown origin); type: protein-complex assay
Chain of Cyclin-dependent kinase 1/cyclin B1 (P06493 whole entry): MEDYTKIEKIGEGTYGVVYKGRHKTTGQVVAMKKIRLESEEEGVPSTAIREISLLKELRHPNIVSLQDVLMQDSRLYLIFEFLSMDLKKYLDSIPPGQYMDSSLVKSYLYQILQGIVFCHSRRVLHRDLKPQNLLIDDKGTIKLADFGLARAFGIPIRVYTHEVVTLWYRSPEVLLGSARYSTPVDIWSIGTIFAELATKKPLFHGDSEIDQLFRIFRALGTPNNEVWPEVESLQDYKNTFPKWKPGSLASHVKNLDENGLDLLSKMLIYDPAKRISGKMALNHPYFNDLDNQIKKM
Chain of Cyclin-dependent kinase 1/cyclin B1 (P14635 whole entry, further chain): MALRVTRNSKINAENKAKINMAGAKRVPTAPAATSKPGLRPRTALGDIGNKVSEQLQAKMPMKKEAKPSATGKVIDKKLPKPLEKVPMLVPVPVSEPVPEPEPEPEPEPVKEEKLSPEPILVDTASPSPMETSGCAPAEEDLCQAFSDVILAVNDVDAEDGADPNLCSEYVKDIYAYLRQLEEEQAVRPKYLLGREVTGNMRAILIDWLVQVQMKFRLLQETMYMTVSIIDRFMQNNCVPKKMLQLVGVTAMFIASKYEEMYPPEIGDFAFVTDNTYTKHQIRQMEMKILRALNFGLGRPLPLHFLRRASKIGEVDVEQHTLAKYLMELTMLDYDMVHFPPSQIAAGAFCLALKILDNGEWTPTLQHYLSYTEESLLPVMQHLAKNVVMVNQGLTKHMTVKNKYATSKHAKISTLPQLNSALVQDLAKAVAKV

[3] = biological target: T1, Cyclin-dependent kinase 5/CDK5 activator 1 (Homo sapiens, UniProt Q00535); assay: Inhibition of CDK5/p25 (unknown origin); type: protein-complex assay
T1 sequence (Q00535 whole entry): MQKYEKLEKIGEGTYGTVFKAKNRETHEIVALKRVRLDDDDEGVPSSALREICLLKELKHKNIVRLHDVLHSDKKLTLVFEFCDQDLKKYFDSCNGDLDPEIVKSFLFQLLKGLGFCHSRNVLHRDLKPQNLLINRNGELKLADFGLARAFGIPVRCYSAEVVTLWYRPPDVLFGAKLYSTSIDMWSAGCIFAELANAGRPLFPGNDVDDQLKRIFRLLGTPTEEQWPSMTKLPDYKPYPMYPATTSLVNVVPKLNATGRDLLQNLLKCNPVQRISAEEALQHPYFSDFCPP
T1 sequence (Q15078 whole entry, further chain): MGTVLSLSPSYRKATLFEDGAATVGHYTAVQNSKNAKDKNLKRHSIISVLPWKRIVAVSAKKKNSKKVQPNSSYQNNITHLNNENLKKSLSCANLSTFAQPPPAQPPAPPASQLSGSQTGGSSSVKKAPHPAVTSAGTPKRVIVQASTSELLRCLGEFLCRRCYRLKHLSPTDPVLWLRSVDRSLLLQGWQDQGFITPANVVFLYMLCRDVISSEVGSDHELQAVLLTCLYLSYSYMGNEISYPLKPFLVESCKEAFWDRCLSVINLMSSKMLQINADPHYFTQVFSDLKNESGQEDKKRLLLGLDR

[4] = Inhibition of CDK8/cyclinD3 (unknown origin); set-up: species or system Homo sapiens
[5] = biological target: Cyclin-dependent kinase 2/cyclin E1 (Homo sapiens, UniProt P24941); assay: Inhibition of CDK2/cyclinE (unknown origin); type: protein-complex assay
CDK9/cyclin T1 = CDK9/cyclin T1 (Homo sapiens, UniProt P50750); assay: Inhibition of CDK9/cyclinT1 (unknown origin); type: protein-complex assay
Chain of CDK9/cyclin T1 (O60563 whole entry): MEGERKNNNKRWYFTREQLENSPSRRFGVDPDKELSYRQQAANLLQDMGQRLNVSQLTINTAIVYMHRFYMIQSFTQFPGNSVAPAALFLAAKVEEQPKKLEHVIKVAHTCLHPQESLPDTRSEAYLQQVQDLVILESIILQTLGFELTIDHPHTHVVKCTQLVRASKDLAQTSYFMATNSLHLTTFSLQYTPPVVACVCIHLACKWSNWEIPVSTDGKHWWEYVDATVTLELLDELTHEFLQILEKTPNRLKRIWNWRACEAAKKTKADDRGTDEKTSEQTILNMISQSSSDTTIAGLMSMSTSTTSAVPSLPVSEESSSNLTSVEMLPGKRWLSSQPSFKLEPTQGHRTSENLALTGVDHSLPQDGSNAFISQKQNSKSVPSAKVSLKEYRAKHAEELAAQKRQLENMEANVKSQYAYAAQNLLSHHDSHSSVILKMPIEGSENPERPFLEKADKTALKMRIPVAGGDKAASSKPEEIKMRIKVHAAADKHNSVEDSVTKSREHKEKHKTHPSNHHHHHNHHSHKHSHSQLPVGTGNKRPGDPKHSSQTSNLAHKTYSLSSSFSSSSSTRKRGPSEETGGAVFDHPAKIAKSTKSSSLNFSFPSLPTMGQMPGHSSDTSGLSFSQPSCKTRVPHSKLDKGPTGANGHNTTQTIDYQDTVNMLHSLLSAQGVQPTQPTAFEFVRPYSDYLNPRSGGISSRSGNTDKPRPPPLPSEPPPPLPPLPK
Chain of CDK9/cyclin T1 (P50750 whole entry): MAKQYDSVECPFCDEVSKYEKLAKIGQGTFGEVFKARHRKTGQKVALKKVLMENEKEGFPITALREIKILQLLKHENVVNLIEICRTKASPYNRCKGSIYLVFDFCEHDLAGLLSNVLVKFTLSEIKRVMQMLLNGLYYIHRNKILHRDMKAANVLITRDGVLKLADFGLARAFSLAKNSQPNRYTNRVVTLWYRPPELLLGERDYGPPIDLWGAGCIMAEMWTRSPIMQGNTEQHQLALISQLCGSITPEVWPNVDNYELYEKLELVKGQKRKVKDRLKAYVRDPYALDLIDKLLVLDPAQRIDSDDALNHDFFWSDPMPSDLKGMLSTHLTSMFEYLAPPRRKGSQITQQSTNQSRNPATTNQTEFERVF

CDK2/Cyclin A2 = CDK2/Cyclin A2 (Homo sapiens, UniProt P24941); assay: Inhibition of CDK2/cyclinA (unknown origin); type: protein-complex assay
CDK7/Cyclin H/MNAT1 = CDK7/Cyclin H/MNAT1 (Homo sapiens, UniProt P50613); assay: Inhibition of CDK7/cyclinH/MAT1 (unknown origin); type: protein-complex assay
Chain of CDK7/Cyclin H/MNAT1 (P51946 whole entry): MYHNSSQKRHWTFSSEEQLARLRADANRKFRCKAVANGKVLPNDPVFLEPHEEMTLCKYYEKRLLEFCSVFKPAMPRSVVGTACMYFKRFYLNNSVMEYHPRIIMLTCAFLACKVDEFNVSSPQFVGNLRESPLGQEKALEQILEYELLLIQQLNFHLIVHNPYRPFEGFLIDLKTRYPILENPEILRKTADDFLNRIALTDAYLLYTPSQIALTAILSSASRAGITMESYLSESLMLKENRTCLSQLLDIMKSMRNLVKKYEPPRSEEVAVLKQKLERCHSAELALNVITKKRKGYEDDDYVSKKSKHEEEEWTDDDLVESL
Chain of CDK7/Cyclin H/MNAT1 (P50613 whole entry): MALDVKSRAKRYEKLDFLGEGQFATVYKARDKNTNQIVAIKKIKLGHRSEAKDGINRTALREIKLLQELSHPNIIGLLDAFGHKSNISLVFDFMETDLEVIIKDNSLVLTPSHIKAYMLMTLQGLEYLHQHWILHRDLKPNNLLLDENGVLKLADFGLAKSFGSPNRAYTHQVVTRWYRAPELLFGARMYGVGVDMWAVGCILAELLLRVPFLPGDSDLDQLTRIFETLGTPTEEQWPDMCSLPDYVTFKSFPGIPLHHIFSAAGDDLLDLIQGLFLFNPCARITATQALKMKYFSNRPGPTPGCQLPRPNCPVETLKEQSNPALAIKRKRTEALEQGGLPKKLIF
Chain of CDK7/Cyclin H/MNAT1 (P51948 whole entry, further chain): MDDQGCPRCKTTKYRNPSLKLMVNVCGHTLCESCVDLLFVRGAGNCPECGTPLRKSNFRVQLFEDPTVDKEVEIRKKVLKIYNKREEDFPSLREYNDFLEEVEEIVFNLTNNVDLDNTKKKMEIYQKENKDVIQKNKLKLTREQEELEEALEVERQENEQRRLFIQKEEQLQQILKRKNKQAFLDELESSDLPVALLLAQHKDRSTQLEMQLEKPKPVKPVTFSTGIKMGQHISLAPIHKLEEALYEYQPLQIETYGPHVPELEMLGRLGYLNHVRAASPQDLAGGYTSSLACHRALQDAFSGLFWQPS

[6] = biological target: T1, Cyclin-dependent kinase 5/CDK5 activator 1; assay: Inhibition of CDK5/p35 (unknown origin); type: protein-complex assay

Chain of CDK3/Cyclin E (P24864 whole entry): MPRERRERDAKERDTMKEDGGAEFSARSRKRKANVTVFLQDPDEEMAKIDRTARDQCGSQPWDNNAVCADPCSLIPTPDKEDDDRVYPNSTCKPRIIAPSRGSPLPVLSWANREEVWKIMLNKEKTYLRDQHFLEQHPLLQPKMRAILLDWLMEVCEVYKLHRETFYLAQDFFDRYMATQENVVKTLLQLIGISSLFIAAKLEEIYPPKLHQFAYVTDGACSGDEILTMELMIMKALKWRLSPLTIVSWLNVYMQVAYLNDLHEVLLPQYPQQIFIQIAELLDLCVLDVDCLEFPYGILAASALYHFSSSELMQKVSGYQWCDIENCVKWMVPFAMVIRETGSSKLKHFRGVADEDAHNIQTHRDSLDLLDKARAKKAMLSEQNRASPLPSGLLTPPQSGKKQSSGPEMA
Chain of CDK3/Cyclin E (Q00526 whole entry): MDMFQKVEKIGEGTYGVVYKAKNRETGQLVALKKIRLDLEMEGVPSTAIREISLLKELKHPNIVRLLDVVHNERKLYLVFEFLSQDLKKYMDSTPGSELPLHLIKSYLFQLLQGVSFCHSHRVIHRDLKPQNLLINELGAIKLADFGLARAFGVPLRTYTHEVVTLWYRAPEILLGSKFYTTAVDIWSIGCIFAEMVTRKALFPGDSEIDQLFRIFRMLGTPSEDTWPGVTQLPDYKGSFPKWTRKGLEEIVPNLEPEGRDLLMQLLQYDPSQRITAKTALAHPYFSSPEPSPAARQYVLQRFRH

SMILES: Nc1nc(N[C@H]2C[C@@H]3CC[C@H]2C3)sc1C(=O)c1ccccc1[N+](=O)[O-]
- Ratio IC50 (Homo sapiens): 22.5
- IC50 (CDK3/Cyclin E): 0.399 µM
- IC50 [1]: 0.112 µM
- IC50 [2]: 0.138 µM
- IC50 [3]: 0.186 µM
- IC50 [4]: 0.712 µM
- IC50 [5]: 0.367 µM
- IC50 (CDK9/cyclin T1): 0.005 µM
- IC50 (CDK2/Cyclin A2): 0.233 µM
- IC50 (CDK7/Cyclin H/MNAT1): 0.555 µM
- IC50 [6]: 0.159 µM
